Reference: ChEMBL document CHEMBL1201862, “PubChem BioAssay data set” (2004)
Calls of active or inactive are those of the source.

Molecular target: Cytochrome P450 2C19 (Homo sapiens, UniProt P33261)
Test: Cytochrome panel assay with activity outcomes. Panel member name: p450-cyp2c19 Compounds with AC50 equal or less than 10 uM are considered active
Format: functional
Settings: read-out: AC50

Chain of Cytochrome P450 2C19 (P33261 whole entry): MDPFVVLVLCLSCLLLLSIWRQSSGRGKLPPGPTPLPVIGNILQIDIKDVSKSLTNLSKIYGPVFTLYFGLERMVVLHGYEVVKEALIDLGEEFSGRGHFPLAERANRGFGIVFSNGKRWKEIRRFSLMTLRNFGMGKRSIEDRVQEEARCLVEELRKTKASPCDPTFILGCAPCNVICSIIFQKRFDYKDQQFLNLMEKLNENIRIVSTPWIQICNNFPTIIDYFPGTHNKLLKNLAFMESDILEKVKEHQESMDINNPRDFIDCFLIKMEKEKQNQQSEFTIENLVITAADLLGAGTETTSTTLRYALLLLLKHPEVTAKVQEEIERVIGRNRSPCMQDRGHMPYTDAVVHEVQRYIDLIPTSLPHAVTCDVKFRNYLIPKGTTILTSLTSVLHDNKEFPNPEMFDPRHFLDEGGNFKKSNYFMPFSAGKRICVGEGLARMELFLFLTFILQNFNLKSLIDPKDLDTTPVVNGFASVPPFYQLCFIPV

| AC50 | SMILES |
| --- | --- |
| 0.0631 µM (inconclusive) | CCOc1ccc(CCNC(=O)C2CC(=O)N(C3CCCC3)C2)cc1OCC (configuration not stated) |
| 0.631 µM (inconclusive) | N=C(N)S[C@H]1c2ccccc2-c2cc([N+](=O)[O-])ccc21 |

Molecular target: T1, Cytochrome P450 1A2 (Homo sapiens, UniProt P05177);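 also: PubChem cytochrome P450 panel assay, CYP1A2 panel member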
T1 sequence (P05177 whole entry): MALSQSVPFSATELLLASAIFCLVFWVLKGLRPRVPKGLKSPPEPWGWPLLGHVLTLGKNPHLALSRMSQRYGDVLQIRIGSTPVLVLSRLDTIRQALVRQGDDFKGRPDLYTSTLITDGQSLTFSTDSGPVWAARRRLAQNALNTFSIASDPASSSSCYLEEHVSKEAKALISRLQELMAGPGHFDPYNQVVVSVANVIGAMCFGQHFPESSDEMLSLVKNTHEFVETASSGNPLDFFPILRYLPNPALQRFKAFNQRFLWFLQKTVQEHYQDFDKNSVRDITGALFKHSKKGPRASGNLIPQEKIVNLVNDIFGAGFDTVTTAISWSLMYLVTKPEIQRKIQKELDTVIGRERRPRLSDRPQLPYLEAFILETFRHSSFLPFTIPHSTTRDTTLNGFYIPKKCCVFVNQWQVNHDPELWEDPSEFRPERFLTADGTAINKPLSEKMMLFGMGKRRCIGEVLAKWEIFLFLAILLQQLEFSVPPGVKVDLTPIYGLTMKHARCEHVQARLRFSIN
Settings: not given

| AC50 | SMILES |
| --- | --- |
| 31.6 µM (inconclusive) | Cc1ccc(Cn2nnc3c(O)nc(C4CCN(C(=O)Cc5cccs5)CC4)nc32)cc1 |

System: not listed separately
Test: Luminescence Cell-Based Dose Retest to Confirm Inhibitors of Cancer Stem Cells. [Related pubchem assays (depositor defined):AID2717, AID2721]
Format: functional
Settings: Homo sapiens

| SMILES | AC50 |
| --- | --- |
| CC(=O)Nc1ccc(-c2csc(NC(=O)Cc3ccccc3F)n2)cc1 | 9.04 µM (active) |
| CC(=O)Nc1ccc(C2CC(c3ccc(Cl)cc3)=NN2c2ccccc2)cc1 (configuration not stated) | 1.64 µM (active) |
| CCC(C)Sc1cccc(-c2nc3cc(C)ccn3c2NCc2ccccc2)c1 (configuration not stated) | 5.14 µM (active) |
| CCOc1cc(/C=N/O)cc(Br)c1OCc1ccc(Cl)cc1 | 3.77 µM (active) |
| COc1ccc(-c2nc(N)nc(C)c2Oc2ccccc2Br)c(O)c1 | 1.96 µM (active) |

System: not listed separately
Test: viability of uninfected HEp-2 cells – cell-based, HTS, cytotoxicity control for RSV inhibitor project, dose response (AID 2410)
Format: functional
Settings: human respiratory syncytial virus

| SMILES | CC50 |
| --- | --- |
| CC(=O)Nc1ccc(C2CC(c3ccc(Cl)cc3)=NN2c2ccccc2)cc1 (configuration not stated) | 47.5 µM (active) |

Molecular target: T2, Corticotropin-releasing factor receptor 2/Corticotropin-releasing factor-binding protein (Homo sapiens, UniProt P24387+Q13324)
T2 sequence (Q13324 whole entry): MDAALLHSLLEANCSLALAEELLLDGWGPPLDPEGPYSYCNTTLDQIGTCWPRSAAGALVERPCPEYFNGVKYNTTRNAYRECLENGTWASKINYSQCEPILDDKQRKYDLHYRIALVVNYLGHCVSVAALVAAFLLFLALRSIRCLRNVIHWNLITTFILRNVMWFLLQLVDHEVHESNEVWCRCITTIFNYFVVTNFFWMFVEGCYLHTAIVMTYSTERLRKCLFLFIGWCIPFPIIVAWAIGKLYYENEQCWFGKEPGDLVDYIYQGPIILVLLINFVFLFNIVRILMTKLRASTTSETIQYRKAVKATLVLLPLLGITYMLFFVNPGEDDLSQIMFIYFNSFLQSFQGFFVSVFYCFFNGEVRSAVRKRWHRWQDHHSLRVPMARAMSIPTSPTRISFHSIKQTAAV
T2 sequence (P24387 whole entry): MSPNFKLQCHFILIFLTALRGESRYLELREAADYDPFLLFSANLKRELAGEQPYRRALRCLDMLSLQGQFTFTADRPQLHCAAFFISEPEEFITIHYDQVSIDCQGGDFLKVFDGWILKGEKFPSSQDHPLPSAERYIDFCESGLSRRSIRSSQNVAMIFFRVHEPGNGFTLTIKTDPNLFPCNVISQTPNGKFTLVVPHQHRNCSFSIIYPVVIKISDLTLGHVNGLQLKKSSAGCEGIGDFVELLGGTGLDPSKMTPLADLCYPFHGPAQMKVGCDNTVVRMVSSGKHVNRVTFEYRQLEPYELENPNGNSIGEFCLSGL
Test: activators of CRF receptor 2 with binding protein – uHTS hits, confirmation (AID 602473)
Format: functional
Settings: read-out: EC50_Mean

| EC50 | SMILES |
| --- | --- |
| > 53 µM (inactive) | CC(=O)c1cccc(NC(=S)NC(=O)Cc2ccc(Cl)cc2)c1 |
| 13.2 µM (active) | CC(=O)c1ccc(NC(=S)NC(=O)Cc2ccc(Cl)cc2)cc1 |
| 5.96 µM (active) | O=[N+]([O-])c1ccc(-c2ccc(/C=N/Nc3nc(N4CCCCC4)nc(N4CCCCC4)n3)o2)cc1 |

Molecular target: T3, Polyadenylate-binding protein 1 (Homo sapiens, UniProt P11940)
Test: MLLE binding blockers, Cy5 peptide tracer – biochemical, fluorescence polarization, Cy5-PAM2 peptide, secondary, miRNA deadenylation inhibitor project, dose response (AID 602260)
Format: functional
Settings: read-out: IC50_Mean

T3 sequence (P11940 whole entry): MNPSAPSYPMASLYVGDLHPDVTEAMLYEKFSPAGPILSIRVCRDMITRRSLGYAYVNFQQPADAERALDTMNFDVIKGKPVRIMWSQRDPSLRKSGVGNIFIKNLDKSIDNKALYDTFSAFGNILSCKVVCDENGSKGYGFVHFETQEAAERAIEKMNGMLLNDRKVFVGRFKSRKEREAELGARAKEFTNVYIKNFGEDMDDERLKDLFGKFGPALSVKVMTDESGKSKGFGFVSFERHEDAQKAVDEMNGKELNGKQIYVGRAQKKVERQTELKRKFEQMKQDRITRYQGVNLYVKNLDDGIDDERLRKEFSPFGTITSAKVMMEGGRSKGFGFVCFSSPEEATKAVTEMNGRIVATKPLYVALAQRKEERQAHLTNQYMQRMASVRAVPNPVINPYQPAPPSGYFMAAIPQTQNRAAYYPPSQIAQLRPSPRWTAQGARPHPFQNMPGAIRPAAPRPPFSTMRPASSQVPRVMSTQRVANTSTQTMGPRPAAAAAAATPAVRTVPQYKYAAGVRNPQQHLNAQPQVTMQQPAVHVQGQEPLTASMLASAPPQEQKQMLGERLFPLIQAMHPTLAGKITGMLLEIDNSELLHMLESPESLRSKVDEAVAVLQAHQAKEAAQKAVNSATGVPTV

| SMILES | IC50 |
| --- | --- |
| CC(=O)Nc1ccc(SCC(=O)NC(=O)c2ccc(S(=O)(=O)N(C)C)cc2)cc1 | > 66 µM (inactive) |
| Cc1cc(C)n2nc(SCc3cc(=O)oc4ccc5ccccc5c34)nc2n1 | > 66 µM (inactive) |

Second part, the molecule after the results:

| IC50 | SMILES |
| --- | --- |
| > 66 µM (inactive) | O=C(CN1C(=O)/C(=C/c2ccccc2Cl)SC1=S)NC1CCS(=O)(=O)C1 (configuration not stated) |
| > 66 µM (inactive) | O=C(NC(=S)Nc1cccc2cccnc12)c1ccccc1 |
| > 66 µM (inactive) | O=C(COc1ccc(Br)cc1)NNC(=O)c1ccc(-n2cncn2)c([N+](=O)[O-])c1 |
| > 66 µM (inactive) | CCc1noc(C)c1C(=O)N1CCN(S(=O)(=O)c2ccccc2C(F)(F)F)CC1 |

Molecular target: T3, Polyadenylate-binding protein 1
Test: MLLE domain peptide-binding blockers, IC50 – biochemical, fluorescence polarization, FITC-PAM2 peptide, dose response (AID 602259)
Format: functional
Settings: read-out: IC50_Mean

| SMILES | IC50 |
| --- | --- |
| CC(=O)Nc1ccc(SCC(=O)NC(=O)c2ccc(S(=O)(=O)N(C)C)cc2)cc1 | > 66 µM (inactive) |
| Cc1cc(C)n2nc(SCc3cc(=O)oc4ccc5ccccc5c34)nc2n1 | > 66 µM (inactive) |

Other lines, results leading:

| IC50 | SMILES |
| --- | --- |
| > 66 µM (inactive) | O=C(CN1C(=O)/C(=C/c2ccccc2Cl)SC1=S)NC1CCS(=O)(=O)C1 (configuration not stated) |
| > 66 µM (inactive) | O=C(NC(=S)Nc1cccc2cccnc12)c1ccccc1 |
| > 66 µM (inactive) | O=C(COc1ccc(Br)cc1)NNC(=O)c1ccc(-n2cncn2)c([N+](=O)[O-])c1 |
| > 66 µM (inactive) | CCc1noc(C)c1C(=O)N1CCN(S(=O)(=O)c2ccccc2C(F)(F)F)CC1 |

Molecular target: Cytochrome P450 2D6 (Homo sapiens, UniProt P10635);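 also: CYP2D6 member of a cytochrome P450 panel assay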
Settings: not given

Chain of Cytochrome P450 2D6 (P10635 whole entry): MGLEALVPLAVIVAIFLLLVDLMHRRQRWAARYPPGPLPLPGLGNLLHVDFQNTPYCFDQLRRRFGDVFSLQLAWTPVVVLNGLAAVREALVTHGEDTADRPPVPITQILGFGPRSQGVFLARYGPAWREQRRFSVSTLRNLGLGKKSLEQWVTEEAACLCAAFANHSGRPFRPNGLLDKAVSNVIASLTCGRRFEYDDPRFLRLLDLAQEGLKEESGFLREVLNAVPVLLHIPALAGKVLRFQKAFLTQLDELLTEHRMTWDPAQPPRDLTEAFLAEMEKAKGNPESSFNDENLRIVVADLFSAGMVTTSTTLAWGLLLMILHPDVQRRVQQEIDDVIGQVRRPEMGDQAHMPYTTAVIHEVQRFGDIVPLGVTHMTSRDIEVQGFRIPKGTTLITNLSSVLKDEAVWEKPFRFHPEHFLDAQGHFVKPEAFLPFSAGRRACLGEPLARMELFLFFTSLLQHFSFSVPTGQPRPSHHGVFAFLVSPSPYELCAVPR

| AC50 | SMILES |
| --- | --- |
| 17.8 µM (inconclusive) | Cc1ccc(Cn2nnc3c(O)nc(C4CCN(C(=O)Cc5cccs5)CC4)nc32)cc1 |
| 0.0282 µM (inconclusive) | CCOc1ccc(CCNC(=O)C2CC(=O)N(C3CCCC3)C2)cc1OCC (configuration not stated) |
| 2.51 µM (inconclusive) | N=C(N)S[C@H]1c2ccccc2-c2cc([N+](=O)[O-])ccc21 |
